For assay [1], the system named is Saccharomyces cerevisiae. Briefly: Inhibition of Saccharomyces cerevisiae alpha-glucosidase at 200 ug/mL using p-nitrophenyl alpha-D-glucoside as substrate by colorimetric assay.
Assay [2] in a line: Inhibition of Saccharomyces cerevisiae alpha-glucosidase using p-nitrophenyl alpha-D-glucoside as substrate by colorimetric assay.

In assay [1], `O=C1C[C@@H](c2ccccc2)Oc2cc(O)cc(O)c21` [PINOCEMBRIN] gave an inhibition of 97.7%. Half-maximal inhibition in assay [2] (IC50) required 4.3 µM.

Take `O=c1cc(-c2ccccc2)oc2c(Cc3cc(O)ccc3O)c(O)cc(O)c12`: the inhibition in assay [1] worked out at 95.8%. Half-maximal inhibition in assay [2] (IC50) required 0.9 µM.

In assay [1], `O=C1C[C@@H](c2ccccc2)Oc2c(Cc3ccccc3O)c(O)c(Cc3ccccc3O)c(O)c21` [DICHAMANETIN] yielded an inhibition of 99.1%. 0.2 µM corresponded to half-maximal inhibition in assay [2] (IC50).

`O=C1C[C@@H](c2ccccc2)Oc2cc(O)c(Cc3ccccc3O)c(O)c21` [ISOCHAMANETIN] yielded an inhibition in assay [1] of 93.2%. Further, in assay [2], the midpoint of inhibition, the IC50, lay at 2.9 µM.

In turn, `CC(=O)OC/C=C\C=C(/COC(C)=O)COC(=O)c1ccccc1` came in with an inhibition in assay [1] of 99.1%. Further, in assay [2], it took 40.7 µM to reach half-maximal inhibition (IC50).

On to `O=c1cc(-c2ccccc2)oc2cc(O)cc(O)c12` [CHRYSIN], for which the inhibition in assay [1] is 95.4%. Moreover, half-maximal inhibition in assay [2] (IC50) required 4.9 µM.

Take `COc1cc(O)c2c(=O)cc(-c3ccccc3)oc2c1` [TECHTOCHRYSIN]: the inhibition in assay [1] is 90.9%. This compound also returned an IC50 in assay [2] of 158 µM.

`CC(=O)O[C@H]1C(=O)C=COC=C1COC(=O)c1ccccc1` [GRANDIUVARONE A] yielded an inhibition in assay [1] of 98.2%. In assay [2], this compound displayed an IC50 of 3.1 µM.

On to `O=c1cc(-c2ccccc2)oc2c(Cc3cccc(O)c3O)c(O)cc(O)c12`, for which the inhibition in assay [1] worked out at 96.1%. In assay [2], this compound came in with an IC50 of 0.9 µM.

In assay [1], `O=C(OCc1ccccc1O)c1ccccc1` returned an inhibition of 97.5%. This compound also showed a 50% inhibitory concentration (IC50) in assay [2] of 4.3 µM.

In the case of `CC(=O)O[C@@H]1C=COC=C(CO)C1=O`, the inhibition in assay [1] was 92.1%. This compound also showed an IC50 in assay [2] of 4.9 µM.

With `O=C(OC[C@@]1(O)C(=O)C=C[C@@H](OC(=O)c2ccccc2)[C@@H]1O)c1ccccc1`, the inhibition in assay [1] is 98.7%. In assay [2], this compound yielded an IC50 of 71.7 µM.

`CC(=O)OC/C=C\C=C(/CO)COC(=O)c1ccccc1` displayed an inhibition in assay [1] of 94%. For the same compound, in assay [2], the IC50 came to 139 µM.

In turn, `CC(=O)O[C@@H]1C=COC=C(COC(=O)c2ccccc2)C1=O` gave an inhibition in assay [1] of 95.5%. Further, inhibition in assay [2] was half-maximal at 3.6 µM (IC50).

`C[C@H]1O[C@H](O[C@H]2[C@H](O)[C@@H](O)[C@@H](O[C@H]3[C@H](O)[C@@H](O)C(O)O[C@@H]3CO)O[C@@H]2CO)[C@H](O)[C@@H](O)[C@@H]1N[C@H]1C=C(CO)[C@@H](O)[C@H](O)[C@H]1O` (some centres undefined) [ACARBOSE] had an IC50 in assay [2] of 171 µM.

Source of the values: ChEMBL document CHEMBL4422694, “α-Glucosidase Inhibitory Flavonoids and Oxepinones from the Leaf and Twig Extracts of Desmos cochinchinensis” (J Nat Prod, 2019).
